Measurements reported in the Kinase Knowledgebase extract (Sharma et al. 2016).

Experiments:
MAPK14 (human) = MAPK14 (human) (UniProt Q16539); experiment: Antiproliferation Assay (U937 Cells)
MAPK14 [1] = target: MAPK14 (UniProt Q16539); experiment: MAPK14 Inhibition (PHAS-I)
MAPK14 [2] = target: MAPK14 (UniProt Q16539); experiment: MAPK14 inhibition (EGFRP)
MAPK14 (Balb/c mice) = experiment: LPS Induced TNF-alpha Production (Balb/c Mice); conditions: dose or concentration not given here

Sequence of MAPK14 (Q16539 whole entry, looked up): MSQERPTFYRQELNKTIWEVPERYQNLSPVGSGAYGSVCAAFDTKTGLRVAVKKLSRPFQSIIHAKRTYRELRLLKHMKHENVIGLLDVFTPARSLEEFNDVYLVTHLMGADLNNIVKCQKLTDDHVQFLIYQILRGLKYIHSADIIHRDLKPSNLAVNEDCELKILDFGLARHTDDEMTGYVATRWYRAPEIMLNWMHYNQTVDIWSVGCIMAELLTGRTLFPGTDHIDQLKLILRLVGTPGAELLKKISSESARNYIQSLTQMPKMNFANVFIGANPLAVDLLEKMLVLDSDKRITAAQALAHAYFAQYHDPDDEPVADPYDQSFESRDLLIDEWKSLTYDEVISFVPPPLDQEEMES
Sequence of MAPK14 (human) (Q16539 whole entry, looked up): as above

Row | Compound | IC50 (MAPK14 (human)) [µM] | IC50 (MAPK14 [1]) [µM] | IC50 (MAPK14 [2]) [µM] | inhibition (MAPK14 (Balb/c mice)) [%]
1 | NS(=O)(=O)Nc1n[nH]c(-c2ccc(F)cc2)c1-c1ccncc1 | 10 |  |  | 
2 | Fc1ccc(-c2cn(CCN3CCOCC3)nc2-c2ccncc2)cc1.Fc1ccc(-c2cnn(CCN3CCOCC3)c2-c2ccncc2)cc1 | 22 | 0.86 | > 10 | 
3 | OCCn1cc(-c2ccc(F)cc2)c(-c2ccncc2)n1.OCCn1ncc(-c2ccc(F)cc2)c1-c1ccncc1 | 40 | 0.695 | 10 | 
4 | CN1CCC(n2cc(-c3ccc(F)cc3)c(-c3ccncc3)n2)CC1.CN1CCC(n2ncc(-c3ccc(F)cc3)c2-c2ccncc2)CC1 |  | 5.9 | 0.75 | 32
5 | CN(C)CCn1cc(-c2ccc(F)cc2)c(-c2ccncc2)n1.CN(C)CCn1ncc(-c2ccc(F)cc2)c1-c1ccncc1 | 5 | 0.941 | 10 | 
6 | Cc1n[nH]c(-c2ccncc2)c1-c1ccccc1 | 10 |  |  | 
7 | CNC(=O)Nc1n[nH]c(-c2ccncc2)c1-c1ccc(F)cc1 | 10 |  |  | 
8 | Cn1nc(-c2ccncc2)c(-c2ccc(Cl)cc2)c1N | 10 |  |  | 
